Reference: ChEMBL document CHEMBL5726054, “Substituted bicyclic compounds” (2019)

These compounds were tested against Sphingosine 1-phosphate receptor 1 (Homo sapiens) (UniProt P21453) (assay: hS1P1 ERK Phosphorylation (S1P1 pERK): hS1P1/CHO cells were plated into BD Amine 384-well plates the day before the assay. On the day of the assay, growth medium was removed and replaced with serum-free medium (Ham's F-12 Invitrogen) and incubated for 2 hours. Test compounds pre-diluted in HBSS (Gibco)/20 mM HEPES (Gibco) were transferred to the cell plates and incubated for 7 minutes at 37° C. …).
Sequence of Sphingosine 1-phosphate receptor 1 (Homo sapiens) (P21453 whole entry, looked up): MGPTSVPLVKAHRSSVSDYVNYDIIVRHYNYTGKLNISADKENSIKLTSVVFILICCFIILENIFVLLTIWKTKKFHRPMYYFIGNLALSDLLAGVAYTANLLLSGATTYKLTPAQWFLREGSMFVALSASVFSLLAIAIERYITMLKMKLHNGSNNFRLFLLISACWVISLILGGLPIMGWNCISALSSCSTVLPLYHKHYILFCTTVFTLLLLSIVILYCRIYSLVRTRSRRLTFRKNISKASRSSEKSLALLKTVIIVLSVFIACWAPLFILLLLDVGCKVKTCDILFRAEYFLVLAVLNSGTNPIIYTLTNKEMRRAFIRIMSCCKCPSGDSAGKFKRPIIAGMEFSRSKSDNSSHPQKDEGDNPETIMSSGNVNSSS

EC50	Compound
in the range around 55 nM	CCCCCC[C@H]1COc2cc([C@H]3CC[C@](N)(COP(=O)(O)O)C3)ccc2C1
in the range around 55 nM	CCCC/C=C/[C@@H]1CCc2cc([C@H]3CC[C@](N)(COP(=O)(O)O)C3)ccc2C1
in the range around 55 nM	CCCCCCC1CCc2cc(C3CCC(N)(COP(=O)(O)O)C3)ccc2O1 (stereo not drawn)
